# Measured values reported in a melting point compilation (Tetko et al.).
row,SMILES,melting point [°C]
1,O=C(O)C1CC1C1CC1 (centres undefined),29 to 31
2,CC(=O)N1CCN(c2ccccc2C=O)CC1,86 to 88
3,CCOC(=O)c1ccc(N)c(O)c1,91 to 93
4,O=C1CCC(Cc2ccc(O)cc2)O1 (centres undefined),104 to 106
5,COc1cc(CCl)ccc1OCc1cccc(C#N)c1,95 to 97
6,O=C(O)C1CC2CCCC(C1)C2=O (centres undefined),129 to 131
7,O=C1c2ccccc2C(=O)N1CC(O)CN1C(=O)c2ccccc2C1=O,206 to 208
8,O=[N+]([O-])c1ccc(S(=O)(=O)Cl)c(C(F)(F)F)c1,78 to 80
9,CC(C)Cn1nc(C(=O)O)c2ccccc2c1=O,171 to 173
10,COc1ccc(S(N)(=O)=O)c(N)c1,139 to 141
11,C#CCNC(=O)Nc1ccc(C(C)=O)cc1,169 to 171
12,Cc1ccc(NC(=O)C2CCNCC2)nc1,145 to 147
13,Cc1cc(C=O)c(C)n1-c1cccc(F)c1,78 to 80
14,CC1CNc2ccccc2S1 (centres undefined),41 to 43
15,NC1(CO)CCc2ccccc21 (centres undefined),100 to 102
16,OCCn1c(CSc2nnc(-c3ccc4c(c3)OCO4)o2)nc2ccc(Cl)cc21,202 to 204
17,O=C(O)C1CCCCN1S(=O)(=O)c1ccc(Br)cc1 (centres undefined),133 to 135
18,O=C(O)c1cc(S(=O)(=O)Cl)cc(F)c1Cl,149 to 151
19,CCCCCNCC(N)=O,64 to 66
20,Cc1cc(C)n(-c2ccc(CC#N)cc2)n1,45 to 55
21,O=C(O)c1ccc(-c2noc(-c3ccc(F)cc3)n2)cc1,291 to 293
22,Clc1ccc2cccnc2c1CBr,119 to 121
23,Nc1ccccc1Oc1ccccc1N,61 to 64
24,Nc1ccnc(OCC(F)(F)F)c1,39 to 41

row,SMILES,melting point [°C]
1,O=C(CCl)NCc1ccc(-c2ccc(Cl)cc2)o1,213 to 218
2,FC(F)Sc1nc2ccccc2[nH]1,< 17
3,O=S(=O)(Nc1ccccc1Br)N1CCCC1,69 to 71
4,O=C(O)C1COc2ccc(Br)cc21 (centres undefined),114 to 116
5,O=c1nc(CCl)[nH][nH]1,179 to 181
6,CC(C)N1C2CCC1CC(C(=O)O)C2 (centres undefined),223 to 225
7,CC(C)CNC(=O)C(C)Cl (centres undefined),37 to 39
8,Cc1ccc(NS(=O)(=O)c2ccc(N)cc2)cc1C,150 to 152
9,O=C1CCCc2cc(C(=O)O)ccc2N1,267 to 269
10,CCC(=O)C(N)=O,94 to 96
11,O=C(O)CNS(=O)(=O)c1c(F)cc(F)cc1Br,136 to 138
12,O=C(O)c1coc(C#Cc2ccccc2)c1,183 to 185
13,Nc1ccccc1C(=O)NCc1ccco1,76 to 78
14,CC(C)[C@H](C(=O)O)N(C)C,154 to 156
15,O=S1(=O)CCNCN1,143 to 145
16,COc1ccc(NC(N)=S)cc1,208 to 210
17,COc1cc(-n2cccc2)c(Cl)cc1C(=O)O,152 to 154
18,NS(=O)(=O)c1ccccn1,141 to 143
19,CC(C)COc1ccc(-c2nn(-c3ccccc3)cc2C=O)cc1,100 to 102
20,O=C1N[C@H](C(=O)O)CS1,166 to 170
21,Cn1ccc(C(=O)NC2(C(=O)O)CCCCCC2)cc1=O,242 to 244
22,NCc1ccc(N2CCOCC2)c(F)c1,36 to 38
23,NS(=O)(=O)c1cnc2c(c1)CCC2,188 to 190
24,O=C(Cn1cnnn1)Nc1ccccc1C(=O)O,194 to 196

row,SMILES,melting point [°C]
1,COc1ccc(C(=O)O)c(Cl)c1,209 to 211
2,O=C1CCC(O)(c2ccccc2)CC1,126 to 128
3,COc1cccc(C(N)(C(=O)O)C(F)(F)F)c1 (centres undefined),139 to 141
4,CS(=O)(=O)c1cccc(C(N)c2ccc(F)cc2)c1 (centres undefined),88 to 90
5,O=C(CCl)NC(=O)NC1CCS(=O)(=O)C1 (centres undefined),173 to 175
6,O=C(O)CCC(=O)c1ccc2ccccc2c1,172 to 174
7,O=C(O)C=Cc1cn(-c2ccccc2)nc1-c1cccc([N+](=O)[O-])c1,248 to 250
8,O=C(O)c1cn(-c2cccc([N+](=O)[O-])c2)nn1,159 to 161
9,COc1ccc(N)cc1NC(=O)c1cccc(F)c1,100 to 102
10,COC(=O)c1cc(Cl)cc(S(=O)(=O)Cl)c1,50 to 52
11,C1CCC(c2nnc3n2CCCC3)NC1 (centres undefined),107 to 109
12,CC(Cl)C(=O)Nc1ccc([N+](=O)[O-])cc1 (centres undefined),138 to 140
13,COCCOc1ccc(C(=O)O)cc1[N+](=O)[O-],134 to 136
14,COC(=O)/C(C#N)=C/c1ccc(OC)cc1,105 to 107
15,O=C(O)C1CCCN1C1CCNCC1 (centres undefined),197 to 199
16,NS(=O)(=O)c1c(F)cccc1[N+](=O)[O-],163 to 165
17,O=C(NCc1ccccc1)OCC(F)(F)F,62 to 66
18,O=C(Cc1nc(CCl)cs1)Nc1ccccc1,115 to 117
19,O=C(O)CCc1c(-c2ccc(F)cc2)[nH]c2ccc(F)cc12,131 to 135
20,CC1=CC=CC(=C2Nc3cc(F)ccc3N2C2CC2)C1=N,149 to 151
21,CC(Oc1ccc(C#N)cc1)C(=O)NN (centres undefined),129 to 131
22,c1ccc2[nH]c(-c3ccncc3)cc2c1,208 to 210
23,Cc1cc(Br)c(S(=O)(=O)Cl)c(Br)c1,124 to 126
24,O=C(O)c1ccc(S(=O)(=O)Cl)c(F)c1,188 to 190

row,SMILES,melting point [°C]
1,N#Cc1c(NC(=O)CCl)oc(-c2ccccc2)c1-c1ccccc1,155 to 157
2,O=C(O)COCCN1CCN(C(c2ccccc2)c2ccc(Cl)cc2)CC1 (centres undefined),224 to 226
3,CN(C(=O)C1CC1)c1ccccc1C(=O)O,166 to 168
4,NNC(=S)NC1CCC1,96 to 98
5,Cc1ccc(NC(=O)C2(CN)CCCC2)cc1C,113 to 115
6,CCOc1ccc(C2(C)NC(=O)NC2=O)cc1 (centres undefined),190 to 192
7,CC(O)C1NC(=O)NC1=O (centres undefined),179 to 181
8,CCOC(=O)C(=O)Nc1ccc(C)cc1,64 to 66
9,CC(=O)NCC(=O)NCC(=O)O,174 to 176
10,CS(=O)(=O)NC1CCNCC1,143 to 145
11,O=C(O)c1cc2c(OC(F)(F)F)cccc2[nH]1,189 to 191
12,Cc1[nH]c(=O)[nH]c(=O)c1CCC(=O)O,306 to 308
13,Cc1ccc(-c2nn(-c3ccccc3)cc2/C=C/C(=O)O)o1,238 to 240
14,NC(=O)NCC(=O)O,174 to 176
15,CN1CC(=O)Nc2cc(Cl)ccc21,181 to 183
16,NS(=O)(=O)c1ccc(NCC(=O)O)cc1,239 to 241
17,CCNC(=O)Nc1cc(F)ccc1N,147 to 149
18,COC(=O)c1c(Cl)ccc([N+](=O)[O-])c1N,89 to 91
19,O=C(O)c1cccc(C(=O)N2CCS(=O)(=O)CC2)n1,217 to 219
20,Cn1nc[nH]c1=O,169 to 171
21,O=C(NC1CCCCCC1)c1ccco1,99 to 101
22,O=[N+]([O-])c1ccc(Cn2ccnc2)cc1,39 to 41
23,CCc1oc2ccccc2c1C(=O)O,89 to 91
24,Nc1ccc(Cl)c(CO)n1,147 to 149

# Next, values leading:
row,melting point [°C],SMILES
1,77 to 79,CC(C)(C)OC(=O)NC1(CN)CCCCCC1
2,144 to 146,Cc1cc(C2(C)NC(=O)NC2=O)c(C)o1 (centres undefined)
3,164 to 166,CC(C)(C)Nc1nnc(S)s1
4,260 to 262,Cc1ccc(-n2c(S)nnc2-c2ccncc2)cc1C
5,177 to 179,NNc1nc(-c2ccccc2)no1
6,200 to 202,CC(=O)Nc1cc(N)ccc1Cl
7,63 to 65,CC(C)(C)OC(=O)NCc1ccc2c(c1)CCCN2
8,195 to 197,Cc1nn2cnnc2[nH]c1=O
9,140 to 142,Nc1ncc(Cc2cccc(Cl)c2Cl)s1
10,178 to 180,Cc1cc(S(=O)(=O)N(C)C)cc(N)c1C
11,132 to 134,Cc1cc(C(=O)NN)c(C)o1
12,252 to 254,Cc1nnc(Cl)n1-c1ccccc1
13,166 to 168,COc1cc(OC)cc(-n2c(C)c(C)c(C#N)c2N)c1
14,69 to 71,Cc1ccc(N(C)C(C)C)c(C(=O)O)c1
15,72 to 74,Cc1nc(-c2cccnc2)nc(Cl)c1C
16,346 to 348,CNc1cc(C(=O)O)c2ccccc2n1
17,231 to 233,Cc1ccc(-c2ccc(=O)[nH]n2)s1
18,277 to 279,CCCC(N)c1nnn[nH]1 (centres undefined)
19,203 to 205,Cc1cc(C)c(C(=O)O)cc1N
20,128 to 130,NS(=O)(=O)c1cccc2c1N=S=N2
21,136 to 138,Cc1nc(C(=O)N(C)C)ccc1C(=O)O
22,249 to 251,CN1C(=O)c2ccc(C(=O)O)cc2S1(=O)=O
23,181 to 185,Cc1nc(N)nc2c1CCCC2
24,117 to 119,Cc1ccc(S(N)(=O)=O)cc1C

row,melting point [°C],SMILES
1,240 to 242,Cn1c(CC(N)=NO)nc2ccccc21
2,130 to 132,COc1ncccc1C(N)=O
3,< 17,Cc1cc(C)n(-c2ccc(CO)cc2)n1
4,135 to 137,CC(=O)Nc1ncccc1N
5,99 to 101,CCc1cc(Cl)nc(-c2ccncc2)n1
6,250 to 252,CCc1ccc(Nc2nnc(SCC(=O)O)s2)cc1
7,67 to 69,CC1(C)CC(=O)c2cncnc2C1
8,143 to 145,Sc1nnnn1-c1ccc2c(c1)OCCO2
9,124 to 126,CC(CN(C)C(=O)OC(C)(C)C)C(N)=NO (centres undefined)
10,67 to 69,CC(=O)c1nc2ccccc2n1C
11,114 to 116,CC(C)OCc1ccc(C(=O)O)cc1
12,167 to 169,Fc1ccccc1-n1cnnc1S
13,109 to 111,COC(=O)c1cc([N+](=O)[O-])ccc1S(=O)(=O)Cl
14,109 to 111,Cc1cnc2c(c1)NCCO2
15,90 to 92,CCOC(=O)c1cnn(C)c1NC(=O)CCl
16,59 to 61,Cc1cccc(C)c1C(C)O (centres undefined)
17,117 to 119,Cc1cccc(C(N)=O)n1
18,34 to 36,OCc1cnns1
19,243 to 245,CCn1ncc2c(C(=O)O)cc(-c3cccs3)nc21
20,157 to 159,BrCC1CSc2nnc(-c3ccccc3)n21 (centres undefined)
21,39 to 41,Clc1cc(Cl)nc(C2CC2)n1
22,188 to 190,Nn1c(S)nnc1-c1ccccc1Br
23,92 to 94,CC(C)(C)OC(=O)Nc1cc(N)ccc1F
24,211 to 213,Cc1nnc(N2CCCC2)c(C(N)=O)c1C
